Measured values from patent publication US20240335569A1, “FIBROBLAST ACTIVATION PROTEIN INHIBITORS AND USE THEREOF” (3 B PHARMACEUTICALS GMBH, priority 2021, published 2024).

Columns and labels:
U2-OS = test: Stability in the presence of human cell lines (U2-OS); type: in vitro ADME; settings: Sarcoma (Bone), 24 hours
Method: (§1) Residual activity was calculated as follows: […]

SCOV-3 = settings: SCOV-3, Ovarian; 24 hours
Method: Cells were cultured in McCoys's 5A modified medium (Biochrom, #F1015) including 10% fetal bovine serum (FBS), 2 mM L-glutamine, 100 U/ml penicillin and 100 μg/mL streptomycin (growth medium). […] 1 mL of the cell suspension were seeded in 24-well plates and incubated overnight at 37° C. and 5% CO2. The next day, cells were washed twice and growth medium was exchanged against DMEM without phenol red (Biochrom, #F0475) including 2 mM L-glutamine. Test compound was diluted in DMEM without phenol red (Biochrom, #F0475) including 2 mM L-glutamine. 400 μL of a 10 μM solution of the test compound was incubated for 24 hours at 37° C. and 5% CO2 in the presence of cells as well as in control wells (without cells) of the same 24-well plate.
25 μL of a 30 μM substrate solution, diluted in assay buffer, was added. All solutions were equilibrated at 37° C. prior to use. […] RFU/sec was calculated by SoftMax Pro software and plotted against test compound concentration. Four parameter logistic (4PL) curve fitting and IC50/pIC50 calculations were performed using GraphPad Prism 9.1 software. Residual activity was calculated as follows: […]
The stability of exemplary compounds was further assessed in the presence of a variety of human cell lines from different tissue origins. […] Residual activity was calculated as follows: […]

Human recombinant FAP = Human recombinant FAP (Homo sapiens (Human), UniProt Q12884); test: Surface plasmon resonance assay (Biacore T200, SCK); type: binding; settings: SPR dissociation half-life
Method in brief: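 Anti-FAP antibody amine-coupled to CM5 chip (7000 RU), human recombinant FAP captured at 20 μg/mL; compounds run in single-cycle kinetics at 25° C in HBST with 0.1% DMSO, top concentration 500 nM. Reference-cell and buffer-run drift subtraction; kon, koff, KD, t1/2 from 1:1 Langmuir fit, reported as pKD.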

HT-29 cells = test: Stability in the presence of tumor cells (HT-29), FAP IC50 of supernatants; type: in vitro ADME, human
Method: The stability of exemplary compounds was further assessed in the presence of a variety of human cell lines from different tissue origins. […] Compounds were diluted in DMEM without phenol red (Biochrom, #F0475) including 2 mM L-glutamine. 400 μL of a 10 μM solution of the test compound was incubated for 24 hours at 37° C. and 5% CO2 in the presence of cells as well as in control wells (without cells) of the same 24-well plate. IC50/pIC50 determination of the supernatants was performed as described above.

AsPC-1 = test: Stability in the presence of human cell lines (AsPC-1); type: in vitro ADME; settings: AsPC-1, Pancreas; 24 hours
Method: as §1

C4-2 = test: Stability in the presence of human cell lines (C4-2); type: in vitro ADME; settings: C4-2, Prostate; 24 hours
Method: as §1

U87MG = test: Stability in the presence of human cell lines (U87MG); type: in vitro ADME; settings: Brain, 24 hours
Method: as §1

WI-38 = test: Stability in the presence of human cell lines (WI-38); type: in vitro ADME; settings: WI-38, Fibroblast (Lung); 24 hours
Method: as §1

HEC-265 = test: Stability in the presence of human cell lines (HEC-265); type: in vitro ADME; settings: HEC-265, Endometrium; 24 hours
Method: as §1

WM-266-4 = test: Stability in the presence of human cell lines (WM-266-4); type: in vitro ADME; settings: WM-266-4, Skin; 24 hours
Method: as §1

MDA-MB-436 = test: Stability in the presence of human cell lines (MDA-MB-436); type: in vitro ADME; settings: MDA-MB-436, Breast; 24 hours
Method: as §1

A549 = test: Stability in the presence of human cell lines (A549); type: in vitro ADME; settings: A549, Lung; 24 hours
Method: as §1

HT-1376 = test: Stability in the presence of human cell lines (HT-1376); type: in vitro ADME; settings: HT-1376, Bladder; 24 hours
Method: as §1

[1] = molecular target: HEK-FAP cells (HEK293 cells engineered to express the human FAP) (Homo sapiens (Human), UniProt Q12884); test: LigandTracer assay with 111In-labeled compounds; type: binding; settings: 111In-labeled compound
Method: HEK293 cells (human embryonic kidney cells) were engineered to express the human FAP. […] Cell concentrations were adjusted to 3×10^5 mL^−1, and 3.000 μL of the suspension was dispensed into a poly-lysine-coated, clear cell dish (10 cm). Approximately 24 hours after re-seeding, the medium was replaced by assay medium (Ham's medium with 20 mM HEPES) containing 1% FCS. The dish was placed in the LigandTracer® device and a baseline measurement was obtained using the LigandTracer® Control software (version 2.4). […] To determine the dissociation rate (kd) the cells were washed and subsequently incubated with fresh assay medium for several hours.

K-562 = test: Stability in the presence of human cell lines (K-562); type: in vitro ADME; settings: K-562, Blood; 24 hours
Method: as §1

786-O = test: Stability in the presence of human cell lines (786-O); type: in vitro ADME; settings: Kidney, 24 hours
Method: as §1

Human recombinant FAP, sequence (Q12884 whole entry): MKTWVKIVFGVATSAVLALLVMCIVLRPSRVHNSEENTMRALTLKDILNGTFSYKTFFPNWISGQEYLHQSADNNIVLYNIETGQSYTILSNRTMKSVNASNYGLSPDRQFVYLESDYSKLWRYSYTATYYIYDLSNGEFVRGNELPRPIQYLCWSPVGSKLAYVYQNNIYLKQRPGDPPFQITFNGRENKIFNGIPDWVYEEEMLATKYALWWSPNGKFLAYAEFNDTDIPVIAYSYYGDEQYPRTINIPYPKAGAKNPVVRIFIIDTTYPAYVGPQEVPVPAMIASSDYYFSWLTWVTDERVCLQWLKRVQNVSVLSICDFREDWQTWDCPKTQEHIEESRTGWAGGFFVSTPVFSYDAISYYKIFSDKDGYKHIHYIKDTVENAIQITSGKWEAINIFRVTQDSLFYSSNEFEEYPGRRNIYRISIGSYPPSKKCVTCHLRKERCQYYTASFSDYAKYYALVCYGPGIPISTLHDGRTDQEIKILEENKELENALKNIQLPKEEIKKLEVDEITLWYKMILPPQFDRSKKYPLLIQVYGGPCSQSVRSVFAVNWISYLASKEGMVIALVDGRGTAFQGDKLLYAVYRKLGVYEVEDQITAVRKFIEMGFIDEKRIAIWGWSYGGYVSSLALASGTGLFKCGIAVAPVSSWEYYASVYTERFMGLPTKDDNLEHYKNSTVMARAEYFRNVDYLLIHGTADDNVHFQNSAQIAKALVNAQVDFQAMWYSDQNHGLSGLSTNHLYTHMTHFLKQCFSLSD

For `N#C[C@@H]1CC(F)(F)CN1C(=O)CNC(=O)c1ccnc2ccc(OCCCN3CCN(C(=O)CN4CCN(CC(=O)O)CCN(CC(=O)O)CCN(CC(=O)O)CC4)CC3)cc12` [Compound 3BP-2929, reference compound], the “Residual Stability (%)” value (U2-OS) was 30%, the “Residual Stability (%)” value (SCOV-3) was 4% and the “HL [min] (Biacore)” value (Human recombinant FAP) was 85 min. For the same compound, the “pIC50 (incubation in cell medium w/o HT-29)” value (HT-29 cells; 10 μM compound, 24 hours at 37° C. in control wells without cells, supernatant tested on recombinant human FAP) was 8.7, the “pIC50 (incubation in the presence of HT-29 cells)” value (HT-29 cells; 10 μM compound, 24 hours at 37° C. with HT-29 cells, supernatant tested on recombinant human FAP) was 7.9 and the “Residual Stability (%)” value (HT-29 cells; HT-29, Intestine, 24 hours) was 14%. The “stability in the presence of HT-29 cells (in words)” value (HT-29 cells; HT-29 cells) was “unstable”, the “Residual activity after incubation with HT-29 cells for 24 hours (%)” value (HT-29 cells; HT-29 cells, 24 hours) was 16% and the “Residual Stability (%)” value (AsPC-1) was 35%. The “Residual Stability (%)” value (C4-2) was 19%, the “Residual Stability (%)” value (U87MG) was 45% and the “Residual Stability (%)” value (WI-38) was 26%. For the same compound, the “Residual Stability (%)” value (HEC-265) was 65%, the “Residual Stability (%)” value (WM-266-4) was 70% and the “Residual Stability (%)” value (MDA-MB-436) was 17%. The “Residual Stability (%)” value (A549) was 20%, the “Residual Stability (%)” value (HT-1376) was 10% and the “HL (half-life)” value [1] was 4.6 ± 2.37 h. For the same compound, the “Residual Stability (%)” value (K-562) was 70% and the “Residual Stability (%)” value (786-O) was 85%.
